Our source for the Ki values is ChEMBL document CHEMBL2346630 (J Med Chem, 2013).

What all share (experiment): biochemical
One experiment addresses CDK9/cyclin T1 (Homo sapiens, UniProt P50750).
Experiment [1] concerns the target Cyclin-dependent kinase 7/ cyclin H (Homo sapiens, UniProt P50613).
Description: Inhibition of human recombinant His6 tagged CDK7/CyclinH/MAT1 expressed in Sf21 insect cells after 40 mins by scintillation counting analysis
The target of experiment [2] is Cyclin-dependent kinase 1/cyclin B1 (Homo sapiens, UniProt P06493).
Description: Inhibition of human recombinant His6 tagged CDK1/Cyclin B expressed in Sf21 insect cells after 40 mins by scintillation counting analysis
In experiment [3] the target is Cyclin-dependent kinase 2/cyclin A (Homo sapiens, UniProt P24941).
Description: Inhibition of human recombinant His6 tagged CDK2/Cyclin A expressed in Sf21 insect cells after 40 mins by scintillation counting analysis

Chain of CDK9/cyclin T1 (O60563 whole entry): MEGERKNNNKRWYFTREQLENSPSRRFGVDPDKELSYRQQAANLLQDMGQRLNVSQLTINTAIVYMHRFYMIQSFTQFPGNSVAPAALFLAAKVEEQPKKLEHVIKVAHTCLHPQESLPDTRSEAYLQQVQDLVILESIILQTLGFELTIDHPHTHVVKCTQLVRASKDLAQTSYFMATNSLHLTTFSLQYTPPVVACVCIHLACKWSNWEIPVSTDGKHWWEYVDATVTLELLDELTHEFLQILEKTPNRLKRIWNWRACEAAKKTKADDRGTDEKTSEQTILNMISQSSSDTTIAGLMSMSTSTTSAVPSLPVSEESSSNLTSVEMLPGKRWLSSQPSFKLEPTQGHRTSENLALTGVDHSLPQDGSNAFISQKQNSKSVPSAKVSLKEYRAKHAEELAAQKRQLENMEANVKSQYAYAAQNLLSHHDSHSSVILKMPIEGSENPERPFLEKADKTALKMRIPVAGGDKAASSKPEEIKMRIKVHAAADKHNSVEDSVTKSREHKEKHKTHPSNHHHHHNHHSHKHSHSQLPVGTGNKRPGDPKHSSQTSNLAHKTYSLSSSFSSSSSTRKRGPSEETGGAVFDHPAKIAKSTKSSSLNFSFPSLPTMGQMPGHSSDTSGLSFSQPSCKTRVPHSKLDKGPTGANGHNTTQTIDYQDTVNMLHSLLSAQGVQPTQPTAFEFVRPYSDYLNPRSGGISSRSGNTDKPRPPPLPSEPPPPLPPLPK
Chain of CDK9/cyclin T1 (P50750 whole entry): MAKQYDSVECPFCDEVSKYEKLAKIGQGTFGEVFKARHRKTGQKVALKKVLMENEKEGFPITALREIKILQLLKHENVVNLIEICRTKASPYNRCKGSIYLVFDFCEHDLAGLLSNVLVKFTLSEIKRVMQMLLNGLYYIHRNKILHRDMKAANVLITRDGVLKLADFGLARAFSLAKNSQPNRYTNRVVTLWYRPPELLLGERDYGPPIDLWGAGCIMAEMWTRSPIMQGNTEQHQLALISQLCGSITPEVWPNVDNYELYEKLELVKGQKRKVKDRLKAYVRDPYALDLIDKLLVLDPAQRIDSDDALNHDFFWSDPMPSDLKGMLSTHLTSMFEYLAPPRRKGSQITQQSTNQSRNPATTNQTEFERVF
Chain of Cyclin-dependent kinase 7/ cyclin H (P51946 whole entry): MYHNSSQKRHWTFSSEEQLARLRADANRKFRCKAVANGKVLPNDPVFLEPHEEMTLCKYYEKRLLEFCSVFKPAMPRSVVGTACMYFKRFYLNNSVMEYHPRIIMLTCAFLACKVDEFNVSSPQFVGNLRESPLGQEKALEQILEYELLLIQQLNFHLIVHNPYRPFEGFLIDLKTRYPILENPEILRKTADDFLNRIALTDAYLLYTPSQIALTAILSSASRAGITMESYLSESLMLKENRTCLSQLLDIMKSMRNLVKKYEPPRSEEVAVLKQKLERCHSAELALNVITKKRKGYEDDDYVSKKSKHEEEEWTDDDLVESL
Chain of Cyclin-dependent kinase 7/ cyclin H (P50613 whole entry): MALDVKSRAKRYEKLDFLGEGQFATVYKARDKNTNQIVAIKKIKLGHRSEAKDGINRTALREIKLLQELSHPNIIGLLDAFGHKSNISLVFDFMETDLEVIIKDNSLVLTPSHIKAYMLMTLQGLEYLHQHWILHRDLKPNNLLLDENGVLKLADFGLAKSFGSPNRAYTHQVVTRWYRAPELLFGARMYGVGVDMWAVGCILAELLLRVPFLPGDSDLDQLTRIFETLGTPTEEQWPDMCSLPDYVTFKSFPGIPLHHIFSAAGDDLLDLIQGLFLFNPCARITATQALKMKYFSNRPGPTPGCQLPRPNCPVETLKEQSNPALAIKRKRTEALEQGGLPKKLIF
Chain of Cyclin-dependent kinase 1/cyclin B1 (P06493 whole entry): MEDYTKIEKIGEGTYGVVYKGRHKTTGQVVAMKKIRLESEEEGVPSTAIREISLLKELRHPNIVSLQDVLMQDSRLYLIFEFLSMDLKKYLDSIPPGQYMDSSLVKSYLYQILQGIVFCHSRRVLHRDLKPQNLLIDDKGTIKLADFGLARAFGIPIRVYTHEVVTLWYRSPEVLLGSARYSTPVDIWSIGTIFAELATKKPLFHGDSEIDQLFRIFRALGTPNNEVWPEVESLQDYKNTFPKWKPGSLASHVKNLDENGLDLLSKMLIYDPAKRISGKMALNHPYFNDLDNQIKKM
Chain of Cyclin-dependent kinase 1/cyclin B1 (P14635 whole entry, further chain): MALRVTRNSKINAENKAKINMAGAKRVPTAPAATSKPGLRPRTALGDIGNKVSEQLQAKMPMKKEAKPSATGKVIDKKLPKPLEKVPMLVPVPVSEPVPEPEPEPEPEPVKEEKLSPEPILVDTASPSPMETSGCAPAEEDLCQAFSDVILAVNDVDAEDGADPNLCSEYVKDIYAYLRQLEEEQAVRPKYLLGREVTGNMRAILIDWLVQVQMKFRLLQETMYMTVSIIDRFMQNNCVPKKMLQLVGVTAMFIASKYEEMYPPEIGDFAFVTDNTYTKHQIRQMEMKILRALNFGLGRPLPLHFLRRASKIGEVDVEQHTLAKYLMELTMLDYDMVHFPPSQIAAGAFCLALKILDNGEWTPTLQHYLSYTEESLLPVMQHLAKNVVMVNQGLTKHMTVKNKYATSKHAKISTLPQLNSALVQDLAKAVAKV
Description for CDK9/cyclin T1: Inhibition of human recombinant His6 tagged CDK9/CyclinT1 expressed in Sf21 insect cells after 40 mins by scintillation counting analysis

Take `CNc1nc(-c2ccccc2)c(-c2ccnc(Nc3cccc([N+](=O)[O-])c3)n2)s1`: the Ki (at CDK9/cyclin T1; in experiment [1]; in experiment [2]) was over 5000 nM each time.

On to `CNc1nc(C)c(-c2nc(Nc3cccc([N+](=O)[O-])c3)ncc2O)s1`, for which the Ki at CDK9/cyclin T1 is 932 nM; in experiment [1] it was over 5000 nM; in experiment [3], over 5000 nM; in experiment [2], 1420 nM.

Consider `CNc1nc(C)c(-c2ccnc(Nc3cccc(S(N)(=O)=O)c3)n2)s1`, for which the Ki on CDK9/cyclin T1 was found to be 2 nM; in experiment [1] it was 1960 nM; in experiment [3] it was 4 nM; in experiment [2], 6 nM.

On to `CNc1nc(C)c(-c2nc(Nc3cccc(S(N)(=O)=O)c3)ncc2O)s1`, for which the Ki (on CDK9/cyclin T1; in experiment [1]; in experiment [3]; in experiment [2]) was over 5000 nM each time.

Regarding `CNc1nc(C)c(-c2nc(Nc3cccc(S(N)(=O)=O)c3)ncc2Cl)s1`, the Ki at CDK9/cyclin T1 stood at 11 nM; in experiment [1], 685 nM.

`CNc1nc(C)c(-c2nc(Nc3cccc(S(N)(=O)=O)c3)ncc2C)s1`: the values for the Ki (at CDK9/cyclin T1; in experiment [1]; in experiment [3]) were 5 nM, 1180 nM and 34 nM, respectively.

In the case of `CCc1cnc(Nc2cccc(S(N)(=O)=O)c2)nc1-c1sc(NC)nc1C`, the Ki at CDK9/cyclin T1 was determined as 98 nM; in experiment [1], 1280 nM; in experiment [3], 845 nM; in experiment [2], 788 nM.

`CCCc1cnc(Nc2cccc(S(N)(=O)=O)c2)nc1-c1sc(NC)nc1C`: the Ki (at CDK9/cyclin T1; in experiment [3]) was over 5000 nM in each case.

Consider `CNc1nc(C)c(-c2nc(Nc3cccc(N4CCN(C(C)=O)CC4)c3)ncc2C#N)s1`, for which the inhibitory constant (Ki) at CDK9/cyclin T1 worked out at 7 nM; in experiment [1], 92 nM; in experiment [3] it was 43 nM; in experiment [2] it was 43 nM.

Take `CNc1nc(C)c(-c2nc(Nc3cccc(N4CCNCC4)c3)ncc2C#N)s1`: the Ki at CDK9/cyclin T1 was 5 nM; in experiment [1], 68 nM; in experiment [3], 56 nM; in experiment [2], 42 nM.

In the case of `CNc1nc(C)c(-c2nc(Nc3ccc(N4CCN(C(C)=O)CC4)cc3)ncc2C#N)s1`, the Ki at CDK9/cyclin T1 was determined as 22 nM; in experiment [1], 316 nM; in experiment [3], 26 nM; in experiment [2] it was 45 nM.

`CNc1nc(C)c(-c2nc(Nc3ccc(N4CCNCC4)cc3)ncc2C#N)s1`: the Ki at CDK9/cyclin T1 was determined as 6 nM; in experiment [1] it was 71 nM; in experiment [3], 39 nM; in experiment [2], 79 nM.

For the compound `CNc1nc(C)c(-c2nc(Nc3cccc(N4CCCCC4)c3)ncc2C#N)s1`, the Ki stood at 9 nM on CDK9/cyclin T1, 286 nM in experiment [1], 42 nM in experiment [3] and 35 nM in experiment [2].

In the case of `CNc1nc(C)c(-c2nc(Nc3cccc(N4CCN(C(C)=O)CC4)c3)ncc2F)s1`, the Ki on CDK9/cyclin T1 was found to be 7 nM; in experiment [1], 302 nM; in experiment [3], 42 nM; in experiment [2], 26 nM.

As for `CNc1nc(C)c(-c2nc(Nc3cccc(N4CCNCC4)c3)ncc2F)s1`, the Ki came to 4 nM on CDK9/cyclin T1, 193 nM in experiment [1], 20 nM in experiment [3] and 24 nM in experiment [2].

For `CNc1nc(C)c(-c2nc(Nc3cccc(N4CCOCC4)c3)ncc2F)s1`, the Ki is 3 nM on CDK9/cyclin T1, 473 nM in experiment [1], 20 nM in experiment [3] and 18 nM in experiment [2].

On to `CNc1nc(C)c(-c2nc(Nc3cccc(N4CCNCC4)c3)ncc2Cl)s1`, for which the Ki at CDK9/cyclin T1 was 4 nM; in experiment [1] it was 155 nM; in experiment [3], 45 nM; in experiment [2], 88 nM.

For `CNc1nc(C)c(-c2nc(Nc3cccc(N4CCCNCC4)c3)ncc2F)s1`, the Ki on CDK9/cyclin T1 was determined as 5 nM; in experiment [1] it was 111 nM; in experiment [3], 85 nM; in experiment [2] it was 47 nM.

Turning to `CNc1nc(C)c(-c2ccnc(Nc3cccc(N4CCCNCC4)c3)n2)s1`, the Ki at CDK9/cyclin T1 is 19 nM; in experiment [1] it was 433 nM; in experiment [3] it was 320 nM; in experiment [2] it was 195 nM.

On to `CNc1nc(CC(F)(F)F)c(-c2ccnc(Nc3cccc([N+](=O)[O-])c3)n2)s1`, for which the Ki on CDK9/cyclin T1 was 134 nM; in experiment [1], over 5000 nM; in experiment [3], over 5000 nM; in experiment [2] it was over 5000 nM.

Regarding `CNc1nc(CC(F)(F)F)c(-c2ccnc(Nc3cccc(O)c3)n2)s1`, the Ki at CDK9/cyclin T1 is 245 nM; in experiment [1], 3470 nM; in experiment [3], 282 nM; in experiment [2], 556 nM.

For the compound `CNc1nc(CC(F)(F)F)c(-c2ccnc(Nc3ccc(O)cc3)n2)s1`, the Ki came to 278 nM at CDK9/cyclin T1, 1540 nM in experiment [1], 347 nM in experiment [3] and 334 nM in experiment [2].

For `CNc1nc(CC(F)(F)F)c(-c2ccnc(Nc3cccc(S(N)(=O)=O)c3)n2)s1`, the Ki on CDK9/cyclin T1 worked out at 156 nM; in experiment [1], 1980 nM; in experiment [3], 226 nM; in experiment [2] it was 154 nM.

Consider `CNc1nc(C(F)(F)F)c(-c2ccnc(Nc3cccc(S(N)(=O)=O)c3)n2)s1`, for which the inhibitory constant (Ki) at CDK9/cyclin T1 was 2 nM; in experiment [1] it was 47 nM; in experiment [3], 2 nM; in experiment [2] it was 1.5 nM.

On to `CNc1nc(C(F)(F)F)c(-c2ccnc(Nc3ccc(S(N)(=O)=O)cc3)n2)s1`, for which the Ki at CDK9/cyclin T1 was 3 nM; in experiment [1] it was 64 nM; in experiment [3], 1.5 nM; in experiment [2] it was 0.5 nM.

`CNc1ncc(-c2ccnc(Nc3ccc(S(N)(=O)=O)cc3)n2)s1`: the affinity in experiment [1], expressed as Ki, was 54 nM. In other words, the double-digit nanomolar range.

Consider `CNc1ncc(-c2ccnc(Nc3cccc(S(N)(=O)=O)c3)n2)s1`, for which the Ki on CDK9/cyclin T1 was found to be 3 nM; in experiment [1], 40 nM; in experiment [3], 5 nM; in experiment [2], 4 nM.

With `CNc1nc(C2CC2)c(-c2ccnc(Nc3cccc(S(N)(=O)=O)c3)n2)s1`, the inhibitory constant (Ki) at CDK9/cyclin T1 was 16 nM; in experiment [1], 273 nM; in experiment [3], 2 nM; in experiment [2], 18 nM.

`CNc1nc(C2CC2)c(-c2ccnc(Nc3ccc(S(N)(=O)=O)cc3)n2)s1`: the Ki was 8 nM on CDK9/cyclin T1, 255 nM in experiment [1], 13 nM in experiment [3] and 2 nM in experiment [2].

For the compound `CNc1nc(C2CC2)c(-c2ccnc(Nc3cccc(N4CCCNCC4)c3)n2)s1`, the Ki on CDK9/cyclin T1 was 66 nM; in experiment [1] it was 464 nM; in experiment [3], 326 nM; in experiment [2], 176 nM.

For `CNc1nc(C)c(-c2ccnc(Nc3cccc([N+](=O)[O-])c3)n2)s1`, the Ki at CDK9/cyclin T1 turned out to be 2 nM; in experiment [1], 417 nM; in experiment [3], 3 nM; in experiment [2] it was 5 nM.
